# Biological target: muscle-type creatine kinase (CK-MM) (Homo sapiens, UniProt P06732)
# Experiment: BLI direct binding response at […]
# Sequence of muscle-type creatine kinase (CK-MM) (P06732 whole entry): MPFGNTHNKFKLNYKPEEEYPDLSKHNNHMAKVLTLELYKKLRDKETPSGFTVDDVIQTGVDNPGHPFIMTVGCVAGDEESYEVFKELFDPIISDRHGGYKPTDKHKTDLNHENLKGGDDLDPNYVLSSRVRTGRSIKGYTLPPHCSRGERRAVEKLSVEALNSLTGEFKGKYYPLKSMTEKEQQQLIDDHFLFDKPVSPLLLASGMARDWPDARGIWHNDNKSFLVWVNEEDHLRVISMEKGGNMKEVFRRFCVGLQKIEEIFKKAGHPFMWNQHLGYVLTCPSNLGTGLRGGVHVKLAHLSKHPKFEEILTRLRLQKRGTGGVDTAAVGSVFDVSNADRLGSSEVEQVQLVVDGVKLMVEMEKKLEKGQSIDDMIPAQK
row,SMILES,BLI direct binding response at 300 uM (no KD)
1,"CC(C)=CCC[C@](C)(O)[C@H]1CC[C@]2(C)[C@@H]1[C@H](O)C[C@@H]1[C@@]3(C)CC[C@H](O)C(C)(C)[C@@H]3[C@@H](O)C[C@]12C [PPT, 20(S)-protopanaxatriol]","F1, Rh2, K, and their aglycones (PPT and PPD) displayed gradually direct interaction with CK-MM"
2,"CC(C)=CCC[C@](C)(O)[C@H]1CC[C@]2(C)[C@@H]1[C@H](O)C[C@@H]1[C@@]3(C)CC[C@H](O[C@@H]4O[C@H](CO)[C@@H](O)[C@H](O)[C@H]4O)C(C)(C)[C@@H]3CC[C@]12C [Rh2, ginsenoside Rh2]","F1, Rh2, K, and their aglycones (PPT and PPD) displayed gradually direct interaction with CK-MM"
3,"CC(C)=CCC[C@](C)(O[C@@H]1O[C@H](CO)[C@@H](O)[C@H](O)[C@H]1O)[C@H]1CC[C@]2(C)[C@@H]1[C@H](O)C[C@@H]1[C@@]3(C)CC[C@H](O)C(C)(C)[C@@H]3CC[C@]12C [GK, ginsenoside compound K]","F1, Rh2, K, and their aglycones (PPT and PPD) displayed gradually direct interaction with CK-MM"

# — PMC7195589 (Journal of Ginseng Research, 2019)
